Patent publication US7601737B2, “Isotopically substituted proton pump inhibitors” (priority 2005, dated 2009)
Where two headings read alike, the source gives them in different places. Blank lines part the entries; values can stand above or below the molecule they belong to.

Columns and labels:
[1] = Metabolisation in liver microsomes (mini pig); assay type: in vitro ADME; conditions: for Percent of compound metabolized: 10 μM, 90 minutes incubation; for Ratio of percent metabolized, Example/Pantoprazole: 90 minutes
Experimental: (§1) Pantoprazole or examples 1 or 2 (10 μM each) were incubated with liver microsomes (source: all from GenTest except Mini Pig from TEBU),incubation in 1 mg/ml protein, 100 mM Tris-HCl, pH 7.4, 1 mM NADPH2). Reaction was terminated after 90 minutes by liquid nitrogen, the parent compound was detected by HPLC (10 mM KH2PO4, pH 7.4, acetonitril gradient 20-44%).

[2] = Metabolisation in liver microsomes (mouse); assay type: in vitro ADME; conditions: for Percent of compound metabolized: 10 μM, 90 minutes incubation; for Ratio of percent metabolized, Example/Pantoprazole: 90 minutes
Experimental: as §1

[3] = Metabolisation in liver microsomes (dog); assay type: in vitro ADME; conditions: for Percent of compound metabolized: 10 μM, 90 minutes incubation; for Ratio of percent metabolized, Example/Pantoprazole: 90 minutes
Experimental: as §1

[4] = Metabolisation in liver microsomes (rat); assay type: in vitro ADME; conditions: for Percent of compound metabolized: 10 μM, 90 minutes incubation; for Ratio of percent metabolized, Example/Pantoprazole: 90 minutes
Experimental: as §1

[5] = Metabolisation in liver microsomes (human); assay type: in vitro ADME; conditions: for Percent of compound metabolized: 10 μM, 90 minutes incubation; for Ratio of percent metabolized, Example/Pantoprazole: 90 minutes
Experimental: as §1

[6] = Metabolisation in liver microsomes (monkey); assay type: in vitro ADME; conditions: for Percent of compound metabolized: 10 μM, 90 minutes incubation; for Ratio of percent metabolized, Example/Pantoprazole: 90 minutes
Experimental: as §1

[7] = Metabolisation in liver microsomes (guinea pig); assay type: in vitro ADME; conditions: Guinee pig liver microsomes; for Percent of compound metabolized: 10 μM, 90 minutes incubation; for Ratio of percent metabolized, Example/Pantoprazole: 90 minutes
Experimental: as §1

in vitro [8] = conditions: human, hepatocytes
Experimental: (§3) Following the evaluation of the metabolic clearance of the compounds according to the invention via P450 enzymes, the formation kinetics of the main metabolite identified in humans, i.e. M2 (5-(difluoromethoxy)-2-[[(3-methoxy-4-sulfate-2-pyridyl)-methyl]sulfinyl]-1H-benzimidazole) was determined. Because the generation of M2 involves the oxidation of the 4-methoxy-pyridyl group by CYP2C19 and subsequent conjugation with 3′-phosphoadenosine-5′-phosphosulfate (PAPS) by an unidentified sulphotransferase, human cryopreserved hepatocytes were used since both phase I and phase II enzymes are functional in this in vitro system.
(§4) M2 formation rate under these conditions was linear up to 60 min. The M2 formation rate was determined at nine different compound concentrations (0, 0.5, 1.0, 2.5, 5.0, 10.0, 25.0, 50.0 and 100 μMol/L) incubated in duplicate for 60 min at 37° C. M2 was quantified using LC-MS/MS. M2 isolated from human urine was used as an external standard. The concentration to reach the half-maximal formation rate (KM-value) and the maximal formation rate (Vmax) were obtained by non-linear regression analysis using the Michaelis-Menten equation. The intrinsic clearance (Clint) was obtained dividing Vmax over KM.

[9] = test system: human cryopreserved hepatocytes
Experimental: as §3, §4

[10] = test system: human cryopreserved hepatocytes; test: in vitro; conditions: for % Σ Clint rac. Omeprazole: hepatocytes
Excerpt: (§2) 5-hydroxy-omeprazole was quantified using LC-MS/MS.

in vitro [11] = conditions: human, hepatocytes; remark: listed apart in the source
Excerpt: as §2

[12] = Table 2, relative to rac. pantoprazole
[13] = Table 3, pooled human hepatocytes, M2 formation, Vmax over KM
[14] = Table 3, relative to rac. pantoprazole

hepatocyte CLint (in vitro [8]): 22 µL/min/1e6 cells
Substrate concentrations at which formation of M2 appeared to be inhibited ([9]; human, 60 min): above 100 μM
% Σ Clint rac. Pantoprazole ([9]; human, hepatocytes): 79%
% Σ Clint rac. pantoprazole ([9]; human, hepatocytes): 79%
Intrinsic clearance (Clint) ([9]; human, hepatocytes): 22.0 μl/min/10^6 cells
Molecule: [2H]C([2H])([2H])Oc1c(OC)ccnc1C[S+]([O-])c1nc2cc(OC(F)F)ccc2[nH]1 (racemic) [Example 22, rac-5-Difluoromethoxy-2-[(4-methoxy-3-trideuteriomethoxy-2-pyridinyl)methylsulfinyl]-1H-benzimidazole]

Reduction in the 5-hydroxy-omeprazole formation rate [10]: not found
% Σ Clint rac. Omeprazole ([10]; human): 107%
hepatocyte CLint (in vitro [11]): 2.1 µL/min/1e6 cells
Molecule: [2H]C([2H])([2H])Oc1ccc2[nH]c([S+]([O-])Cc3ncc(C)c(OC)c3C)nc2c1 (racemic) [Example 46, rac-5-Trideuteriomethoxy-2-[(4-methoxy-3,5-dimethyl-2-pyridinyl)methylsulfinyl]-1H-benzimidazole]

5-hydroxy-omeprazole formation rate, reduction compared to non-deuterated omeprazole ([10]; human, 60 min): about 1.5 fold
% Σ Clint rac. Omeprazole ([10]; human): 69%
hepatocyte CLint (in vitro [11]): 1.4 µL/min/1e6 cells
Molecule: [2H]C([2H])([2H])Oc1c(C)cnc(C[S+]([O-])c2nc3cc(OC)ccc3[nH]2)c1C (racemic) [Example 48, rac-5-Methoxy-2-[(3,5-dimethyl-4-trideuteriomethoxy-2-pyridinyl)methylsulfinyl]-1H-benzimidazole]
Reduction in the 5-hydroxy-omeprazole formation rate ([10]; human, 60 min): Reduction in the 5-hydroxy-omeprazole formation rate was observed

Percent of compound metabolized [1]: 19%
Ratio of percent metabolized, Example/Pantoprazole [1]: 0.73
Percent of compound metabolized [2]: 17%
Ratio of percent metabolized, Example/Pantoprazole [2]: 0.27
Percent of compound metabolized [3]: 10%
Ratio of percent metabolized, Example/Pantoprazole [3]: 0.50
Percent of compound metabolized [4]: 17%
Ratio of percent metabolized, Example/Pantoprazole [4]: 0.28
Percent of compound metabolized [5]: 15%
Ratio of percent metabolized, Example/Pantoprazole [5]: 0.54
Percent of compound metabolized [6]: 35%
Ratio of percent metabolized, Example/Pantoprazole [6]: 0.48
Percent of compound metabolized [7]: 54%
Ratio of percent metabolized, Example/Pantoprazole [7]: 0.69
Molecule: [2H]C([2H])([2H])Oc1ccnc(C[S@+]([O-])c2nc3cc(OC(F)F)ccc3[nH]2)c1OC [Example 2, (S)(−)-5-Difluoromethoxy-2-[(3-methoxy-4-trideuteriomethoxy-2-pyridinyl)methylsulfinyl]-1H-benzimidazole]

% Σ Clint (S)-pantoprazole ([9]; Table 2, relative to (S)-pantoprazole): 21%
Molecule: [2H]C([2H])([2H])Oc1ccnc(C[S@+]([O-])c2nc3cc(OC(F)F)ccc3[nH]2)c1OC [Example 5, Sodium (S)-{[5-(difluoromethoxy)]-2-[(3-methoxy-4-trideuteriomethoxy-2-pyridinyl)methylsulphinyl]-1H-benzimidazolide} hydrate]

hepatocyte CLint (in vitro [8]): 3.4 µL/min/1e6 cells
% Σ Clint (S)-pantoprazole ([9]; Table 3, relative to (S)-pantoprazole): 21%
Molecule: [2H]C([2H])([2H])Oc1ccnc(C[S@+]([O-])c2nc3cc(OC(F)F)ccc3[nH]2)c1OC.[Na] [Example 36, (S)-5-Difluoromethoxy-2-[(3-methoxy-4-trideuteriomethoxy-2-pyridinyl)methylsulfinyl]-1H-benzimidazole sodium salt]

Continued, molecule first:

Molecule: [2H]C([2H])([2H])Oc1ccnc(C[S+]([O-])c2nc3cc(OC(F)F)ccc3[nH]2)c1OC (racemic) [Example 1, (R/S)-5-Difluoromethoxy-2-[(3-methoxy-4-trideuteriomethoxy-2-pyridinyl)methylsulfinyl]-1H-benzimidazole]
Percent of compound metabolized [1]: 19%
Ratio of percent metabolized, Example/Pantoprazole [1]: 0.73
Percent of compound metabolized [2]: 36%
Ratio of percent metabolized, Example/Pantoprazole [2]: 0.58
Percent of compound metabolized [3]: 12%
Ratio of percent metabolized, Example/Pantoprazole [3]: 0.60
Percent of compound metabolized [4]: 35%
Ratio of percent metabolized, Example/Pantoprazole [4]: 0.57
Percent of compound metabolized [5]: 14%
Ratio of percent metabolized, Example/Pantoprazole [5]: 0.50
Percent of compound metabolized [6]: 47%
Ratio of percent metabolized, Example/Pantoprazole [6]: 0.64
Percent of compound metabolized [7]: 59%
Ratio of percent metabolized, Example/Pantoprazole [7]: 0.75

Molecule: O.[2H]C([2H])Oc1ccnc(C[S+]([O-])c2nc3cc(OC(F)F)ccc3[nH]2)c1OC.[Na] (racemic) [Example 24, rac-5-Difluoromethoxy-2-[(3-methoxy-4-dideuteriomethoxy-2-pyridinyl)methylsulfinyl]-1H-benzimidazole sodium salt mono hydrate]
hepatocyte CLint (in vitro [8]): 13.5 µL/min/1e6 cells
% Σ Clint rac. pantoprazole [9, 12]: 48%
Intrinsic clearance (Clint) [9, 13]: 13.5 μl/min/10^6 cells
% Σ Clint rac. Pantoprazole [9, 14]: 48%

Molecule: O.[2H]COc1ccnc(C[S+]([O-])c2nc3cc(OC(F)F)ccc3[nH]2)c1OC.[Na] (racemic) [Example 25, rac-5-Difluoromethoxy-2-[(3-methoxy-4-monodeuteriomethoxy-2-pyridinyl)methylsulfinyl]-1H-benzimidazole sodium salt mono hydrate]
hepatocyte CLint (in vitro [8]): 17.7 µL/min/1e6 cells
% Σ Clint rac. pantoprazole [9, 12]: 63%
Intrinsic clearance (Clint) [9, 13]: 17.7 μl/min/10^6 cells
% Σ Clint rac. Pantoprazole [9, 14]: 63%

Molecule: O.[2H]C([2H])([2H])Oc1ccnc(C[S+]([O-])c2nc3cc(OC(F)F)ccc3[nH]2)c1OC.[Na] (racemic) [Example 32, rac-5-Difluoromethoxy-2-[(3-methoxy-4-trideuteriomethoxy-2-pyridinyl)methylsulfinyl]-1H-benzimidazole sodium salt mono hydrate]
hepatocyte CLint (in vitro [8]): 5.1 µL/min/1e6 cells
% Σ Clint rac. Pantoprazole [9, 14]: 18%

Molecule: [2H]C([2H])([2H])Oc1ccc2[nH]c([S+]([O-])Cc3ncc(C)c(OC([2H])([2H])[2H])c3C)nc2c1 (racemic) [Example 47, rac-5-Trideuteriomethoxy-2-[(3,5-dimethyl-4-trideuteriomethoxy-2-pyridinyl)methylsulfinyl]-1H-benzimidazole]
5-hydroxy-omeprazole formation rate, reduction compared to non-deuterated omeprazole ([10]; human, 60 min): about 1.5 fold
% Σ Clint rac. Omeprazole ([10]; human): 69%
hepatocyte CLint (in vitro [11]): 1.4 µL/min/1e6 cells

Molecule: COc1ccnc(C[S+]([O-])c2nc3ccc(OC(F)F)cc3[nH]2)c1OC (racemic) [rac. pantoprazole Na 1.5 H2O, 5-difluoromethoxy-2-[(3,4-dimethoxy-2-pyridinyl)methylsulphinyl]-1H-benzimidazole, reference compound]
hepatocyte CLint (in vitro [8]): 27.9 µL/min/1e6 cells
% Σ Clint rac. Pantoprazole ([9]; human, hepatocytes): 100%
% Σ Clint rac. pantoprazole ([9]; human, hepatocytes): 100%
Intrinsic clearance (Clint) ([9]; human, hepatocytes): 27.9 μl/min/10^6 cells

Molecule: COc1ccnc(C[S@@+]([O-])c2nc3cc(OC(F)F)ccc3[n-]2)c1OC.COc1ccnc(C[S@@+]([O-])c2nc3cc(OC(F)F)ccc3[n-]2)c1OC.O.O.O.[Na+].[Na+] [(R)-pantoprazole Na 1.5 H2O, reference compound]
% Σ Clint (R)-pantoprazole ([9]; human, hepatocytes): 100%
Intrinsic clearance (Clint) ([9]; human, hepatocytes): 25.7 μl/min/10^6 cells

Molecule: COc1ccc2nc([S@@+]([O-])Cc3ncc(C)c(OC)c3C)[nH]c2c1 [(S)-omeprazole sodium, (S)-5-methoxy-2-[(4-methoxy-3,5-dimethyl-2-pyridinyl)methylsulphinyl]-1H-benzimidazole, reference compound]
% Σ Clint rac. Omeprazole ([10]; human): 37%
hepatocyte CLint (in vitro [11]): 0.7 µL/min/1e6 cells

Molecule: COc1ccnc(C[S@+]([O-])c2nc3cc(OC(F)F)ccc3[n-]2)c1OC.COc1ccnc(C[S@+]([O-])c2nc3cc(OC(F)F)ccc3[n-]2)c1OC.O.O.O.[Na+].[Na+] [(S)-pantoprazole Na 1.5 H2O, reference compound]
% Σ Clint (S)-pantoprazole ([9]; human, hepatocytes): 100%
Intrinsic clearance (Clint) ([9]; human, hepatocytes): 16.1 μl/min/10^6 cells

Molecule: O.O.O.[2H]C([2H])([2H])Oc1ccnc(C[S@@+]([O-])c2nc3cc(OC(F)F)ccc3[nH]2)c1OC.[Na] [Example 30, (R)-5-Difluoromethoxy-2-[(3-methoxy-4-trideuteriomethoxy-2-pyridinyl)methylsulfinyl]-1H-benzimidazole sodium salt trihydrate]
% Σ Clint (R)-pantoprazole ([9]; Table 2, relative to (R)-pantoprazole): 21%

Molecule: [2H]C([2H])([2H])Oc1ccnc(C[S@@+]([O-])c2nc3cc(OC(F)F)ccc3[nH]2)c1OC.[Na] [Example 37, (R)-5-Difluoromethoxy-2-[(3-methoxy-4-trideuteriomethoxy-2-pyridinyl)methylsulfinyl]-1H-benzimidazole sodium salt]
hepatocyte CLint (in vitro [8]): 5.5 µL/min/1e6 cells
% Σ Clint (R)-pantoprazole ([9]; Table 3, relative to (R)-pantoprazole): 21%

Molecule: [2H]C([2H])([2H])Oc1ccc2[nH]c([S@@+]([O-])Cc3ncc(C)c(OC([2H])([2H])[2H])c3C)nc2c1.[Na] [Example 49, (S)-5-Trideuteriomethoxy-2-[(3,5-dimethyl-4-trideuteriomethoxy-2-pyridinyl)methylsulfinyl]-1H-benzimidazole sodium salt]
Change of intrinsic clearance (Clint) of 5-hydroxy-omeprazole [10]: did not alter the intrinsic clearance
% Σ Clint rac. Omeprazole ([10]; human): 40%
hepatocyte CLint (in vitro [11]): 0.8 µL/min/1e6 cells

Molecule: Sodium (R/S)-{[5-(difluoromethoxy)]-2-[(3-methoxy-4-trideuteriomethoxy-2-pyridinyl)methylsulphinyl]-1H-benzimidazolide} hydrate [Example 6]
Intrinsic clearance (Clint) ([9]; Table 2, pooled human hepatocytes, M2 formation, Vmax over KM): 5.1 μl/min/10^6 cells
% Σ Clint rac. pantoprazole [9, 12]: 20%
Effect of increasing number of [2H] atoms in the 4-methoxy-pyridyl position on M2 formation rates ([9]; series [1H], [2H1], [2H2], [2H3]): decreased M2 formation rates
